The test system of this test is GFP-expressing Zaire Ebolavirus Mayinga-GFP. The test can be described thus: microbe, parasite or virus in culture. In kind it is cell-based. The note with it: HeLa, read-out: Activity (Biological activity, EC50).
As to `Cc1cccc(/C=N/Nc2cc(N3CCOCC3)nc(OCC(F)(F)c3ccccc3)n2)c1` [Compound 45, (E)-4-(2-(2,2-Difluoro-2-phenylethoxy)-6-(2-(3-methylbenzylidene)hydrazinyl)pyrimidin-4-yl)morpholine], the EC50 (in general, the concentration needed to bring the measured effect to its halfway point) lay within 1000 to 50000 nM. For `C(=N\Nc1cc(N2CCOCC2)nc(OCCc2ccccn2)n1)/c1ccccc1` [Compound 46, (E)-4-(6-(2-Benzylidenehydrazinyl)-2-(2-(pyridin-2-yl)ethoxy)pyrimidin-4-yl)morpholine] the value was 1000 to 50000 nM; for `Cc1cccc(/C=N/Nc2cc(N3CCOCC3)nc(OCc3ccccc3)n2)c1` [Compound 47, (E)-4-(2-(Benzyloxy)-6-(2-(3-methylbenzylidene)hydrazinyl)pyrimidin-4-yl)morpholine], less than 1000 nM. In the case of `N#Cc1cccc(/C=N/Nc2cc(N3CCOCC3)nc(OCCc3ccccn3)n2)c1` [Compound 48, (E)-3-((2-(6-Morpholino-2-(2-(pyridin-2-yl)ethoxy)pyrimidin-4-yl)hydrazono)methyl)benzonitrile] it was 1000 to 50000 nM; in that of `Cc1cccc(/C=N/Nc2cc(N3CCOCC3)nc(OC(C)c3ncccn3)n2)c1` (stereo not drawn) [Compound 49, (E)-4-(6-(2-(3-Methylbenzylidene)hydrazinyl)-2-(1-(pyrimidin-2-yl)ethoxy)pyrimidin-4-yl)morpholine], less than 1000 nM.

Take `Cc1cccc(/C=N/Nc2cc(N3CCOCC3)nc(OCc3nccc(C)n3)n2)c1` [Compound 50, (E)-4-(6-(2-(3-Methylbenzylidene)hydrazinyl)-2-((4-methylpyrimidin-2-yl)methoxy)pyrimidin-4-yl)morpholine]: the EC50 was less than 1000 nM. For `Cc1cccc(/C=N/Nc2cc(N3CCOCC3)nc(Oc3ccccc3)n2)c1` [Compound 51, (E)-4-(6-(2-(3-Methylbenzylidene)hydrazinyl)-2-phenoxypyrimidin-4-yl)morpholine] the value was less than 1000 nM; for `Cc1cccc(/C=N/Nc2cc(N3CCOCC3)nc(OCc3ncc(Cl)cn3)n2)c1` [Compound 52, (E)-4-(2-((5-Chloropyrimidin-2-yl)methoxy)-6-(2-(3-methylbenzylidene)hydrazinyl)pyrimidin-4-yl)morpholine], less than 1000 nM. In the case of `Cc1cccc(/C=N/Nc2cc(N3CCOCC3)nc(Oc3ccc4ccccc4c3)n2)c1` [Compound 53, (E)-4-(6-(2-(3-Methylbenzylidene)hydrazinyl)-2-(naphthalen-2-yloxy)pyrimidin-4-yl)morpholine] it was less than 1000 nM; in that of `Cc1cccc(/C=N/Nc2cc(N3CCOCC3)nc(OCc3nccc(C(F)(F)F)n3)n2)c1` [Compound 54, (E)-4-(6-(2-(3-Methylbenzylidene)hydrazinyl)-2-((4-(trifluoromethyl)pyrimidin-2-yl)methoxy)pyrimidin-4-yl)morpholine], less than 1000 nM. As to `Cc1cccc(/C=N/Nc2cc(N3CCOCC3)nc(Oc3ccc4nc(Cl)ccc4c3)n2)c1` [Compound 55, (E)-4-(2-(2-Chloroquinolin-6-yloxy)-6-(2-(3-methylbenzylidene)hydrazinyl)pyrimidin-4-yl)morpholine], the concentration giving a half-maximal response (EC50) is less than 1000 nM. As to `Cc1ccc(/C=N/Nc2cc(N3CCOCC3)nc(OCCc3ccccn3)n2)cc1` [Compound 56, (E)-4-(6-(2-(4-Methylbenzylidene)hydrazinyl)-2-(2-(pyridin-2-yl)ethoxy)pyrimidin-4-yl)morpholine], the EC50 is less than 1000 nM. In the case of `Cc1cccc(/C=N/Nc2cc(N3CCOCC3)nc(OCCc3ccc(N4CCOCC4)cn3)n2)c1` [Compound 57] it was more than 50000 nM. In the case of `Cc1cnc(COc2nc(N/N=C/c3cccc(C)c3)cc(N3CCOCC3)n2)nc1` [Compound 58, (E)-4-(6-(2-(3-Methylbenzylidene)hydrazinyl)-2-((5-methylpyrimidin-2-yl)methoxy)pyrimidin-4-yl)morpholine] it was less than 1000 nM. In the case of `Cc1cccc(/C=N/Nc2cc(N3CCOCC3)nc(OCc3nc(C)cc(C)n3)n2)c1` [Compound 59, (E)-4-(2-((4,6-Dimethylpyrimidin-2-yl)methoxy)-6-(2-(3-methylbenzylidene)hydrazinyl)pyrimidin-4-yl)morpholine] it was less than 1000 nM. For the compound `COc1cnc(COc2nc(N/N=C/c3cccc(C)c3)cc(N3CCOCC3)n2)nc1` [Compound 60, (E)-4-(2-((5-Methoxypyrimidin-2-yl)methoxy)-6-(2-(3-methylbenzylidene)hydrazinyl)pyrimidin-4-yl)morpholine], the EC50 is less than 1000 nM. On to `CS(=O)(=O)c1cccc(/C=N/Nc2cc(N3CCOCC3)nc(OCCc3ccccn3)n2)c1` [Compound 61, (E)-4-(6-(2-(3-(Methylsulfonyl)benzylidene)hydrazinyl)-2-(2-(pyridin-2-yl)ethoxy)pyrimidin-4-yl)morpholine], for which the EC50 was more than 50000 nM. In the case of `Cc1cccc(/C=N/Nc2cc(N3CCOCC3)nc(Oc3ccc4nc(C)ccc4c3)n2)c1` [Compound 62, (E)-4-(6-(2-(3-Methylbenzylidene)hydrazinyl)-2-(2-methylquinolin-6-yloxy)pyrimidin-4-yl)morpholine] it was less than 1000 nM. For the compound `Cc1cccc(/C=N/Nc2cc(N3CCOCC3)nc(Oc3ccc4nccc(Cl)c4c3)n2)c1` [Compound 63, (E)-4-(2-(4-Chloroquinolin-6-yloxy)-6-(2-(3-methylbenzylidene)hydrazinyl)pyrimidin-4-yl)morpholine], the EC50 was less than 1000 nM. In the case of `Cc1cccc(/C=N/Nc2cc(N3CCOCC3)nc(OCc3nc4ccccc4c(=O)[nH]3)n2)c1` [Compound 64, (E)-2-((4-(2-(3-Methylbenzylidene)hydrazinyl)-6-morpholinopyrimidin-2-yloxy)methyl)quinazolin-4(3H)-one] it was less than 1000 nM; in that of `CCC(Oc1nc(N/N=C/c2cccc(C)c2)cc(N2CCOCC2)n1)c1ncccn1` (stereo not drawn) [Compound 65, (E)-4-(6-(2-(3-Methylbenzylidene)hydrazinyl)-2-(1-(pyrimidin-2-yl)propoxy)pyrimidin-4-yl)morpholine], less than 1000 nM; in that of `Cc1cccc(/C=N/Nc2cc(N3CCOCC3)nc(Oc3ccc4ncc(Cl)cc4c3)n2)c1` [Compound 66, (E)-4-(2-(3-Chloroquinolin-6-yloxy)-6-(2-(3-methylbenzylidene)hydrazinyl)pyrimidin-4-yl)morpholine], less than 1000 nM. For `Cc1cccc(/C=N/Nc2cc(N3CCOCC3)nc(Oc3ccc4ncc(F)cc4c3)n2)c1` [Compound 67, (E)-4-(2-(3-Fluoroquinolin-6-yloxy)-6-(2-(3-methylbenzylidene)hydrazinyl)pyrimidin-4-yl)morpholine] the value was less than 1000 nM; for `Cc1cccc(/C=N/Nc2cc(N3CCOCC3)nc(Oc3ccc4nccc(C)c4c3)n2)c1` [Compound 68, (E)-4-(6-(2-(3-Methylbenzylidene)hydrazinyl)-2-(4-methylquinolin-6-yloxy)pyrimidin-4-yl)morpholine], less than 1000 nM.

The record behind these values is patent publication US20180271873A1, “METHODS FOR TREATING VIRAL INFECTIONS” (priority 2015, published 2018).
